The values that follow come from US20110230659A1, “CYCLOBUTYL PURINE DERIVATIVE, ANGIOGENESIS PROMOTING AGENT, LUMEN FORMATION PROMOTING AGENT, NEUROCYTE GROWTH PROMOTING AGENT, AND DRUG” (NATIONAL UNIVERSITY CORPORATION KAGAWA UNIVERSITY, priority 2008, published 2011).

The test system of one test is Akt. The test can be described thus: Akt activation (phosphorylation) immunoblot in HUVEC. The conditions noted are these: 100 μmol/l; 0 to 60 minutes. The format is cell-based, human. The method, then:
(§1) First, to a HuMedia-EB2 medium (Kurabo) to which 2 v/v % inactivated fetal bovine serum (FBS) had been added, 2-Cl—C.OXT-A was added so that its concentration became 100 μmol/l. Thus, a medium was prepared. Using the medium, human umbilical vein endothelial cells (HUVEC) were cultured for predetermined periods (0, 10, 20, 30, 45, and 60 minutes).
After the culture, cells were collected. The collected cells were lysed by adding a cell lysis buffer (SDS-lysis buffer) thereto, and heat-denatured at 95° C. for 5 minutes. The solubilized protein in an amount corresponding to 5 v/v % of the heat-denatured cell lysate was subjected to electrophoresis using 10% SDS-polyacrylamide gel, whereby the solubilized protein was transferred onto a nitrocellulose membrane (Amersham Biosciences). […]
(§2) The enzymes were visualized with SuperSignal (registered trademark) West Pico Chemiluminescent Substrate (Pierce), and detected by being exposed to RX—U X-ray film (FUJIFILM Corporation). From the detected bands, the respective phosphoenzymes and total enzymes were quantified using an NIH image software. Furthermore, the relative value (−fold) of each phosphoenzyme was calculated by substituting the measured value of the phosphoenzyme into the following equation (III).
In general terms: In western blotting, separated proteins are transferred to a membrane and probed.

Test [1] has as its system Human umbilical vein endothelial cells (HUVEC). The experiment in a line: Measurement of cell migration (CytoSelect 24-well Cell Migration Assay). The format is cell-based. The protocol: Measurement of cell migration was carried out in the following manner using CytoSelect 24-well Cell Migration Assay (CBA-100, Cell Biolabs) kits. First, sample solutions were prepared by dissolving 2-Cl—C.OXT-A in physiological saline so as to achieve predetermined concentrations (0.1, 0.5, 1 mmol/l). Then, the sample solutions containing 2-Cl—C.OXT-A at the predetermined concentrations respectively were added to HuMedia-EB2 media (Kurabo) to which 2 v/v % inactivated fetal bovine serum (FBS) had been added so that their concentrations became 10 v/v %. Thus, cell migration media were prepared. The final concentrations of 2-Cl—C.OXT-A in the cell migration media were 10, 50, and 100 μmol/l.
Human umbilical vein endothelial cells (HUVEC) were suspended in a HuMedia-EB2 medium (Kurabo) to which 2 v/v % inactivated fetal bovine serum (FBS) had been added at a density of 0.5×10^6 cells/ml. Thus, a cell suspension was prepared. 300 μl of the cell suspension was added to an upper compartment (i.e., in an insert) of a polycarbonate membrane plate provided in the kit, and 500 μl of the cell migration medium was added to a lower compartment (i.e., in a well) of the plate. Then, the cells were cultured at 37° C. for 24 hours. After the completion of the culture, the membrane on the inner bottom face of the insert was wiped out with a cotton swab to remove the cells on the membrane. Then, cells having migrated to the rear face of the membrane (the membrane on the outer bottom face of the insert) were stained using a staining solution provided in the kit, and then photographed from below the insert. After the photographing, the dye was extracted with an extracting solution provided in the kit, and the absorbance at 560 nm was measured using a microplate reader. As a control, a HuMedia-EB2 medium (Kurabo) to which 2 v/v % inactivated fetal bovine serum (FBS) had been added was used instead of the cell migration medium to carry out the culture, and the cells were stained and the absorbance was measured in the same manner as in the above. Then, using the above equation (I), the relative absorbance in the culture using each of the cell migration media containing 2-Cl—C.OXT-A at the predetermined concentrations was calculated.

The subject of test [2] is cornea of Japanese white rabbit. The test can be described thus: Angiogenesis test, rabbit cornea assay. The settings on record: 16 mmol/l in 30 μl of physiological saline injected to cornea, observed after 7 days. The format is in vivo. The protocol:
In the present example, the effect of 2-Cl—C.OXT-A of Example 1 on angiogenesis was examined by a rabbit cornea assay.
A sample was prepared by adding 2-Cl—C.OXT-A to 30 μl of physiological saline so that its concentration became 16 mmol/l. The sample was injected to a cornea of Japanese white rabbit (male, 2.8 kg) under sevoflurane anesthesia. The cornea was observed after a lapse of 7 days.

In a further test the test system is ERK. The test can be described thus: ERK activation (phosphorylation) immunoblot in HUVEC. The test is classed as cell-based, human. The conditions noted are these: for relative value (−fold) of pERK: 100 μmol/l. The protocol: as §1
After the culture, cells were collected. The collected cells were lysed by adding a cell lysis buffer (SDS-lysis buffer) thereto, and heat-denatured at 95° C. for 5 minutes. The solubilized protein in an amount corresponding to 5 v/v % of the heat-denatured cell lysate was subjected to electrophoresis using 10% SDS-polyacrylamide gel, whereby the solubilized protein was transferred onto a nitrocellulose membrane (Amersham Biosciences). To 20 ml of TBS-T having the following composition, skim milk (Wako) was added so that its concentration became 5%, thus preparing a blocking solution. The resultant nitrocellulose membrane was immersed in the blocking solution and shaken at room temperature for 1 hour.
Primary antibodies shown below were diluted 1000-fold by adding them to 5% bovine serum albumin (Sigma)-containing TBS-T, thus preparing a primary antibody solution. The nitrocellulose membrane after being subjected to the blocking was immersed in the primary antibody solution, and shaken at room temperature for 1 hour. The resultant nitrocellulose membrane was immersed in the TBS-T and washed by being shaken for 10 minutes. This washing operation was carried out three times in total.
Secondary antibodies shown below were diluted 20000-fold by adding them to TBS-T, thus preparing a secondary antibody solution. The nitrocellulose membrane having undergone the reaction with the primary antibodies was immersed in the secondary antibody solution, and shaken at room temperature for 1 hour. The resultant nitrocellulose membrane was immersed in the TBS-T and washed by being shaken for 10 minutes. This washing operation was carried out three times in total.
as §2
Relative value(−fold)of phosphoenzyme=(B/D)/(A/C) (III)
In the present example, the effect of 2-Cl—C.OXT-A of Example 1 and C.OXT-G of Comparative Example 2 on the activation (phosphorylation) of ERK was examined. In the present example, the amount of each enzyme was measured and the relative value (−fold) of each phosphoenzyme was calculated in the same manner as in Example 3, except that: a medium to which 2-Cl—C.OXT-A had been added so as to achieve predetermined concentrations (0, 10 and 100 μmol/l) and a medium to which 100 μmol/l C.OXT-G had been added were used; the culture period after the addition was set to 20 minutes: as the primary antibodies, only an anti-phospho ERK polyclonal antibody (Catalog No. 9101, Cell Signaling Technology) and an anti-total ERK monoclonal antibody (Catalog No. 610408, BD Transduction Laboratory) were used; as the secondary antibody for ERK, a sheep HRP-labeled anti-mouse IgG antibody (Pierce) was used; and as a secondary antibody of pERK, a sheep HRP-labeled anti-rabbit IgG antibody (Pierce) was used.
In the present example, the effect of PD98059 as an MEK inhibitor on the ERK activation (phosphorylation) by 2-Cl—C.OXT-A used in Example 1 was examined. […]

`Nc1nc(Cl)nc2c1ncn2C1CC(CO)C1CO` (stereo not drawn) [2-Cl—C.OXT-A, 6-amino-2-chloro-9-[trans-trans-2,3-bis(hydroxymethyl)cyclobutyl]purine]: in the test on Akt, the “amount of pAkt” value is given as “not changed”. Also, in test [1] (final concentration 10 μmol/l to 100 μmol/l, 24 hours, versus control), the “stained area (cell migration photographs)” value was “larger than that in the control”. Besides, the “relative absorbance (cell migration)” value is given as 2.1 in test [1] (final concentration 50 μmol/l) and “higher than that of the control” in test [1] (final concentration 10 to 100 μmol/l, versus control). Also, in test [1] (final concentration 50 μmol/l, VEGF 10 ng/ml), the “cell migration promoting-activity compared with VEGF” value is recorded as “higher than that in Comparative Example 7”. In test [1] (final concentrations 50 and 100 μmol/l, p<0.02), the “migration promoting-activity compared with physiological saline” value is “significantly higher than that in Comparative Example 8”. The “angiogenesis in the cornea” value in test [2] is listed as “considerable angiogenesis”. In addition, the “relative value (−fold) of pERK” value in the test on ERK (Example 3, 20 minutes after the addition) was “about 11 fold”; with ERK (Example 4, 20 minutes) it was “about 10 fold”. Besides, in the test on ERK (Example 4, 0, 10 and 100 μmol/l, 20 minutes), the “pERK, concentration dependence” value is “increased in a manner dependent on the concentration”. The pERK result in the test with ERK (Example 6, medium No. 2: 2-Cl—C.OXT-A 100 μmol/l, no PD98059) is on record as “increased”.
